# In patent US20160038519A1, “ADMINISTRATION OF KARENITECIN FOR THE TREATMENT OF ADVANCED OVARIAN CANCER, INCLUDING CHEMOTHERAPY-RESISTANT AND/OR THE MUCINOUS ADENOCARCINOMA SUB-TYPES” (BioNumerik Pharmaceuticals, Inc., priority 2014, published 2016):
# Like-named read-outs stand apart in the source and are kept apart here.
# How the values were obtained:
# [1] = Limit of solubility in cell culture medium; type: physicochemical
# Experimental: (§1) The 1050 values exceeded the solubility in medium for each compound—the limit of solubility in cell culture medium for the compounds were as follows: 2 micromolar for BNP1350 and SN38, and 20 micromolar for Topotecan. Cells were treated for periods of 2.5 hours or 6 hours and, in each case, the […] values were not reached. Longer treatments were not performed.
# [2] = system: JHOM2B Cell Line; assay: SRB cytotoxicity assay, JHOM2B; type: cell-based, human
# Experimental: (§2) In vitro studies were conducted in human mucinous ovarian cancer cell lines including JHOM2B, OMC3, and COV644. In one series of experiments, the dose response curves for BNP1350 (also known as Karenitecin), SN-38 (Irinotecan), and Topotecan were obtained and IC50 values were determined. In a second series of experiments, the effect of BNP7787 (2,2′-dithio-bis-ethane sulfonate; Tavocept) on BNP1350-induced cytotoxicity at selected BNP1350 concentrations was examined.
# (§3) The JHOM2B and OMC3 cell lines were purchased from Riken Cell Bank (Japan). The COV644 cell line was purchased from SigmaAldrich. Cells were maintained as monolayered cultures in T-75 flasks and then seeded to microtiter plate wells for experiments. Population doubling-times for these three cell lines were long (i.e., exceeding 40 hours, and for some of the cell lines approaching 96 hours); therefore, the Applicants conducted initial pilot experiments and determined optimal seeding density to obtain A570 values in untreated controls that would fall within the linear range of the SRB assay after seven (7) total days of cell growth. JHOM2B cells were cultured in DMEM:F12 (1:1)+0.1 mM non-essential amino acids (NEAA)+10% FBS and were seeded at 6,000 cells per well. OMC3 cells were cultured in HamF12+10% FBS and were seeded at 8,000 cells per well. COV644 cells were cultured in DMEM+2 mM glutamine+10% FBS and were seeded at 6,000 cells per well.
# (§4) The cells were manipulated in a Microzone laminar flow hood traditionally used for maintaining aseptic environments around automated instrumentation such as microplate robots, and the like. Cells were grown and maintained at 37° C. in a humidified atmosphere containing 5% CO2 in a water jacketed cell culture incubator (Forma Scientific). Cells were counted using a ViCell counter (Beckman-Coulter). An automated plate washer/stacker (ELx405/BioStak from BioTek Instruments) and a microplate reader (SpectraMax Plus from Molecular Devices) were used for conducting the SRB assay and determining A570 values for wells in the plates and the percentage of control values. Prior to SRB assays, cell viability was monitored by evaluation of microtiter plate wells. Dead cells detach and float while living cells remain attached to the bottom of the cell well.
# (§5) SN-38 (Irinotecan; Sigma H0165, lot MKBQ4981) and Topotecan (Sigma T2705, lot 052M4728V) were purchased from SigmaAldrich. BNP1350 (lot KN-C192-135) and BNP7787 (lot 205001) were synthesized at BioNumerik Pharmaceuticals, Inc. (San Antonio, Tex.). BNP1350, SN38, and Topotecan were prepared as 2.5, 2.5, and 25 mM stocks in DMSO (ATCC, cell culture grade).
# (§6) The sulforhodamine B (SRB) cytotoxicity assay was used to assess cell survival. Briefly, after the medium was decanted from individual plate wells, trichloroacetic acid (100 μL of 10.0 percent solution) was added to each well, and the plates were incubated at 4° C. for 1 hour. The plates were washed five times with water using an automated microplate washer (Model ELx405, Bio-Tek Instruments), SRB solution (100 μL of 0.4% SRB dissolved in 1.0 percent acetic acid) was added, and plates remained at room temperature for 15 minutes. The plates were then washed five times using acetic acid (1.0 percent), air dried, and bound dye was solubilized in Tris base (150 μL, 10 mM). Plates were agitated (gently) for 5 minutes and the absorbance values of the SRB dye-protein adduct at 570 nanometers (A570) were determined using an automated microtiter plate reader (SpectraMax Plus, Molecular Devices). IC50 values were extrapolated from dose response curves of the data using OriginLab Software.
# [3] = system: OMC3 Cell Line; assay: SRB cytotoxicity assay, OMC3; type: cell-based, human
# Experimental: as §2, §3, §4, §5, §6
# [4] = system: COV644 Cell Line; assay: SRB cytotoxicity assay, COV644; type: cell-based, human; settings: 2, 5, and 6 hour drug exposures
# Experimental: as §2, §3, §4, §5, §6, §1
# [5] = system: MDR-expressing sublines; settings: cited from earlier work; for Resistance of MDR-expressing sublines relative to parental wild-type cells: comparison studies
# [6] = human, in vivo; cited from earlier work
# [7] = 2 hour drug exposure, read-out: IC50, Test 1 (2 replicate plates)
# [8] = 2 hour drug exposure, read-out: IC50, Test 2 (3 replicate plates)
smiles,measurement,setting,value
CCc1c2c(nc3ccc(O)cc13)-c1cc3c(c(=O)n1C2)COC(=O)[C@]3(O)CC [SN38],Limit of solubility in cell culture medium,[1],2 µM
same,IC50,"[2]; 2 hour drug exposure, average of Test 1 and Test 2, read-out: IC50, Average",666 nM
same,IC50,[2]; [7],610 ± 130 nM
same,IC50,[2]; [8],723 ± 28 nM
same,IC50,[2]; read-out: IC50 values,667 nM
same,IC50,[3]; [7],550 ± 60 nM
same,IC50,[3]; [8],580 ± 127 nM
same,IC50,[3]; read-out: IC50 values,565 nM
same,IC50,"[4]; did not reach 50% of Control, read-out: IC50, Test 1 (2 replicate plates)",> 2000 nM
same,IC50,"[4]; did not reach 50% of Control, read-out: IC50, Test 2 (2 to 3 replicate plates)",> 2000 nM
same,IC50,"[4]; read-out: IC50, Average",> 2000 nM
COc1cc([C@@H]2c3cc4c(cc3[C@@H](O[C@@H]3O[C@@H]5CO[C@@H](C)O[C@H]5[C@H](O)[C@H]3O)[C@H]3COC(=O)[C@H]23)OCO4)cc(OC)c1O [etoposide],Change in sensitivity typically described for classic MDR substrates,[5]; same experiments,200 fold
"CC[C@@]1(O)C(=O)OCc2c1cc1n(c2=O)Cc2cc3cc4c(cc3nc2-1)OCO4 [10,11-methylenedioxycamptothecin]",Resistance of MDR-expressing sublines relative to parental wild-type cells,[5],No increase in resistance
"CC[C@@]1(O)C(=O)OCc2c1cc1n(c2=O)Cc2cc3c(N)cccc3nc2-1 [9-aminocamptothecin, 9-amino-camptothecin]",Resistance of MDR-expressing sublines relative to parental wild-type cells,[5],two-fold more resistant
Nc1ccn([C@@H]2O[C@H](CO)[C@@H](O)C2(F)F)c(=O)n1 [Gemcitabine],Subjects with neutropenia,[6],up to 90%
